Publication PMC9785280, “Synthesis, Antiproliferative Evaluation and QSAR Analysis of Novel Halogen- and Amidino-Substituted Benzothiazoles and Benzimidazoles” (International Journal of Molecular Sciences, 2022)
Values joined by “and” are separate entries in the source; they are usually repeats but may differ in a detail not shown here. Identical values can stand only once. Like-named read-outs stand apart in the source and are kept apart here.

Experiments:
[1] = system: MDA-MB-231 (human breast adenocarcinoma) cells; assay: MTT antiproliferative assay, MDA-MB-231; format: cell-based; conditions: for IC50: Homo sapiens, MDA-MB-231, 72 h, MTT, mean ± SD of three independent experiments; for SI (MDCK) MDA-MB-231: SI = IC50 MDCK1 / IC50 MDA-MB-231
Procedure: (§1) The growth inhibition activity was assessed according to the slightly modified procedure performed at the National Cancer Institute, Developmental Therapeutics Program.
(§2) Examined compounds were dissolved in DMSO (1 × 10^−2 M). The experiments were carried out on seven human tumor cell lines and two normal cell lines. The following cell lines were used: HeLa (human cervical adenocarcinoma; purchased from ATCC), CaCo-2 (human colorectal adenocarcinoma), HuT78 (T-cell lymphoma), THP-1 (acute monocytic leukemia), SW620 (colorectal adenocarcinoma, metastatic), MDA-MB-231 (human breast adenocarcinoma), HL60 (promyelocytic leukemia cell line), foreskin fibroblast cells (BJ) and MDCK1 (Madine–Darby canine kidney fibroblast like cells). MDCK1 cells were used between 24 and 26 passages.
(§3) Adherent cells were cultured in the Dulbecco’s modified Eagle medium—DMEM (Gibco, EU) supplemented with 10 % heat-inactivated fetal bovine serum (FBS, Gibco, EU), 2 mM glutamine, and 100 U/0.1 mg penicillin/streptomycin. Cells on suspension were cultured in RPMI 1640 (Gibco, EU) medium supplemented with 10 % FBS (Gibco, EU), 2 mM glutamine, 1 mM sodium pyruvate, 10 mM HEPES. Cells were grown in humidified atmosphere under the conditions of 37 °C/5% of CO2 gas in the CO2 incubator (IGO 150 CELLlife^TM, JOUAN, Thermo Fisher Scientific, Waltham, MA, USA). A erythrosin B (Sigma-Aldrich, St. Louis, MO, USA) dye exclusion method was used to assess cell viability before plating.
(§4) Adherent cells (HeLa, CaCo-2, MCF-7 and MDCK-1) were plated in 96-well flat bottom plates (Greiner, Frickenhausen, Austria) at a concentration of 2 × 10^4 cells/mL. Suspension cells (THP-1 and HuT78) were plated in 96-well microtiter plates (Sarstead, Newton, USA) at a concentration of 1 × 10^5 cells/mL. Twenty-four hours later, cells were treated with test agents in […] 10-fold dilutions ([…] to 10^−4 M) and incubated for further 72 h. Working dilutions were freshly prepared on the day of testing. The solvent was also tested for eventual inhibitory activity by adjusting its concentration to be the same as in working concentrations. After 72 h of incubation, the cell growth rate was evaluated by performing the MTT assay, which detects dehydrogenase activity in viable cells. For this purpose, upon completion of the incubation period, growth medium was discarded and 50 μL of MTT was added to each well at a concentration of 5 mg/mL. After four hours of incubation at 37 °C, water insoluble MTT-formazan crystals were dissolved in 150 μL of dimethyl-sulfoxide (DMSO) for adherent cells, and in 10 % SDS with 0.01 M/L HCl for cells grown in suspension. The absorbance (OD, optical density) was measured on a microplate reader (iMark, BIO RAD, Hercules, CA, USA) at 595 nm.
(§5) Percent of life cells was calculated as follows: % = OD (sample)–OD (background)/OD (control)–OD (background) × 100.
(§6) Optical density (OD) of background for adherent cells is the OD of MTT solution and DMSO; OD (background) for suspension cells is OD of the culture medium with MTT and 10% SDS with 0.01 M/L HCl; OD (control) is the OD of the cells growth without tested compounds.
(§7) Calculation of GI50 value curves and QC analysis is performed by using the Excel tools and GraphPadPrism software (La Jolla, CA), v. 5.03. Briefly, individual concentration effect curves are generated by plotting the logarithm of the concentration of tested compounds(X) vs. corresponding percent inhibition values (Y) using least squares fit. The best fit GI50 values are calculated using Log (inhibitor) versus normalized response—Variable slope equation, where Y Ľ 100/(1 ţ 10 ((LogIC50 _ X) * HillSlope)). QC criteria parameters (Z0, S:B, R2, HillSlope) were checked for every GI50 curve.

[2] = system: CaCo-2 (colon adenocarcinoma) cells; assay: MTT antiproliferative assay, CaCo-2; format: cell-based, human; conditions: for IC50: Homo sapiens, Caco-2, 72 h, MTT, mean ± SD of three independent experiments
Summary of the method: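 CaCo-2 cells, plated at 2 × 10^4 cells/mL in DMEM with 10 % FBS at 37 °C/5% CO2, were treated 24 h later with five 10-fold dilutions (10^−7 to 10^−4 M) for 72 h. Viability was measured by MTT (4 h, formazan dissolved in DMSO, OD 595 nm) against background and untreated controls. GI50 came from log-concentration versus percent-inhibition fits.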

[3] = system: THP1 (human monocytic leukemia) cells; assay: MTT antiproliferative assay, THP1; format: cell-based; conditions: for IC50: Homo sapiens, THP-1, 72 h, MTT, mean ± SD of three independent experiments; for SI (MDCK) THP1: SI = IC50 MDCK1 / IC50 THP1; for SI (BJ) THP1: SI = IC50 BJ / IC50 THP1
Procedure: as §1, §2, §3, §4, §5, §6, §7

[4] = system: SW620 (colorectal adenocarcinoma, metastatic) cells; assay: MTT antiproliferative assay, SW620; format: cell-based, human; conditions: for IC50: Homo sapiens, SW-620; for SI (MDCK) SW620: SI = IC50 MDCK1 / IC50 SW620
Procedure: as §1, §2, §3, §4, §5, §6, §7

[5] = system: HeLa (cervical adenocarcinoma) cells; assay: MTT antiproliferative assay, HeLa; format: cell-based; conditions: Homo sapiens, 72 h, mean ± SD of three independent experiments
Summary of the method: (§8)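 Adherent cells (2 × 10^4 cells/mL) or suspension cells (1 × 10^5 cells/mL) were exposed 24 h after plating to five 10-fold dilutions (10^−7 to 10^−4 M) for 72 h. MTT was then added for 4 h at 37 °C and absorbance read at 595 nm. GI50 came from variable-slope log(inhibitor) vs normalized response fits.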

[6] = system: HuT78 (T-cell lymphoma) cells; assay: MTT antiproliferative assay, HuT78; format: cell-based, human; conditions: for IC50: 72 h, MTT, mean ± SD of three independent experiments; for SI (MDCK) HuT78: SI = IC50 MDCK1 / IC50 HuT78; for SI (BJ) HuT78: SI = IC50 BJ / IC50 HuT78
Summary of the method: as §8

[7] = system: HL60 (promyelocytic leukemia) cells; assay: MTT antiproliferative assay, HL60; format: cell-based, human; conditions: for IC50: Homo sapiens, HL-60, 72 h, MTT, mean ± SD of three independent experiments; for SI (MDCK) HL60: SI = IC50 MDCK1 / IC50 HL60; for SI (BJ) HL60: SI = IC50 BJ / IC50 HL60
Procedure: as §1, §2, §3, §4, §5, §6, §7

[8] = system: human fibroblasts (BJ); assay: MTT antiproliferative assay, normal BJ fibroblasts; format: cell-based; conditions: for IC50: Homo sapiens, Fibroblast, 72 h, MTT, mean ± SD of three independent experiments, normal cells
Summary of the method: as §8

[9] = system: MDCK1 (Madin–Darby canine kidney) cells; assay: MTT antiproliferative assay, non-tumor MDCK1 cells; format: cell-based; conditions: Canis lupus familiaris, MDCK1, 72 h, mean ± SD of three independent experiments, normal cells
Summary of the method: as §8

[10] = system: HuT78 cells; assay: Cell cycle analysis (PI, flow cytometry); format: cell-based, human; conditions: HuT78, 5 µM, 24 h, versus untreated cells
Procedure: The HuT78 cells were plated in 6-well plates at a concentration of 5 × 10^5 cells per well and treated 24 h and 48 h with selected compounds 36c, 42a, 42c, 45a, 45b, 45c and 46c at a concentration of 5 μM. After drug treatment, the cells were fixed with ice-cold 70% ethanol in phosphate-buffered saline (PBS) and incubated with 0.3 μg/mL propidium iodide for 30 min at room temperature. Before being analyzed by flow cytometry (BD FACSCalibur, Becton Dickinson, San Jose, CA, SAD), samples were treated with 0.4 μg/mL RNase A for 5 min at room temperature. The resultant DNA histograms were generated and analyzed using FlowJo 7.6 software (Treestar, Inc, Ashland, OR, USA). Experiments were done in duplicate and the quantitative data are reported as average value ± standard deviation. Comparisons between control (non-treated) and treated groups were done using one-way analysis of variance (ANOVA) with Tukey–Kramer’s post hoc test with MedCalc statistical program. P-value less than 0.05 was considered statistically significant.

[11] = 72 h, MTT, mean ± SD of three independent experiments, read-out: IC50 (µM) SW620

Compound	IC50 [1] [µM]	IC50 [2] [µM]	IC50 [3] [µM]	IC50 [4, 11] [µM]	IC50 [5] [µM]	IC50 ([6]; Homo sapiens, HuT78, 72 h) [µM]	SI (MDCK) HuT78 [6]	IC50 [7] [µM]	IC50 [8] [µM]	SI (MDCK) MDA-MB-231 [1]	IC50 [9] [µM]	SI (MDCK) THP1 [3]	SI (BJ) HuT78 [6]	SI (MDCK) HL60 [7]	SI (BJ) THP1 [3]	SI (BJ) HL60 [7]	G2/M phase cell fraction [10]	further results
Cl.c1cc(-c2nc3ccc(C4=NCCN4)cc3s2)ccc1OCc1c[nH]nn1 [36a, 2-(4-((1H-1,2,3-triazol-4-yl)methoxy)phenyl)-6-(4,5-dihydro-1H-imidazol-2-yl)benzothiazole hydrochloride]	33 ± 4.9	24.8 ± 9.2	20.4 ± 3.3	5.6 ± 1.2	62.6 ± 22	4.4 ± 3.9	7.23	18.8 ± 1.1										IC50 ([4]; span over SW620, MDA-MB-231, HL60, THP1, read-out: IC50 values on additional set of tumor cells): 5.6 to 33 µM; melting point: 218 to 221 °C
COc1cc(-c2nc3ccc(C4=NCCCN4)cc3s2)ccc1OCc1ccccn1 [39c]	38.5 ± 1.6	34.7 ± 2.8	69.7 ± 6.3	34.2 ± 7.1	> 100	12.7 ± 0.9	7.87	31.1 ± 3	38.1 ± 1.4	2.6	> 100	1.43	3	3.22				SI (MDCK) CaCo-2 ([2]; SI = IC50 MDCK1 / IC50 CaCo-2): 2.87; SI (MDCK) SW620 [4]: 2.92
O=C(COc1ccc(-c2nc3ccc(C4=NCCCN4)cc3[nH]2)cc1)c1ccccc1 [42a]	76.3 ± 11.8	> 100	44.5 ± 5.3	> 100	> 100	7 ± 5.2	14.29	33.2 ± 1.8	> 100	1.31	> 100	2.25	14.29	3.01	2.25	3.01		SI (BJ) MDA-MB-231 ([1]; SI = IC50 BJ / IC50 MDA-MB-231): 1.31
O=C(COc1ccc(-c2nc3ccc(C4=NCCCN4)cc3[nH]2)cc1F)c1ccccc1 [42b]	84.5 ± 18.3	> 100	> 100	92.7 ± 34.3	> 100	11.9 ± 3.6	5.66	44.4 ± 12.6	47 ± 3.3		67.3 ± 12.7		3.95	1.51				
COc1cc(-c2nc3ccc(C4=NCCCN4)cc3[nH]2)ccc1OCC(=O)c1ccccc1 [42c]	38.9 ± 4.2	> 100	19.7 ± 2.4	29.8 ± 3	> 100	24.9 ± 4.6	4.0	19.5 ± 0.8	32.8 ± 4.1	2.57	> 100	5.13	1.32	5.13	1.68	1.68	decrease in G2/M phase	SI (MDCK) SW620 [4]: 3.36
c1ccc(COc2ccc(-c3nc4ccc(C5=NCCCN5)cc4[nH]3)cc2)nc1 [43a]	> 100	> 100	29.7 ± 8.6	> 100	> 100	28.6 ± 3.9	3.5	40.4 ± 12	33 ± 20.3		> 100	3.37		2.48				
c1ccc(Cn2cc(COc3ccc(-c4nc5ccc(C6=NCCCN6)cc5[nH]4)cc3)nn2)cc1 [45a]	> 100	> 100		> 100	> 100	4.8 ± 3.6	20.83	48.1 ± 16.4			> 100	125		2.07	69.5 and 70	1.15	decrease in G2/M phase	
Fc1cc(-c2nc3ccc(C4=NCCCN4)cc3[nH]2)ccc1OCc1cn(Cc2ccccc2)nn1 [45b]	> 100	> 100	2.5 ± 1.5	> 100	> 100	5.5 ± 4	8.36	30 ± 12.3	82.1 ± 0.4		46.1 ± 14.8	18.44		1.54	32.84	2.74	decrease in G2/M phase	
COc1cc(-c2nc3ccc(C4=NCCCN4)cc3[nH]2)ccc1OCc1cn(CCN2CCOCC2)nn1 [46c]	> 100	> 100	> 100	> 100	> 100	4.1	19.6	50.7 ± 20.5	> 100		> 100			1.97		1.97		toxicity to normal BJ cells (in words) [8]: not toxic; IC50 [6]: 5.1 ± 4.2 µM
